The record followed here is patent US11180487B2, “Substituted cyanoindoline derivatives as NIK inhibitors” (Janssen Pharmaceutica NV, priority 2016, dated 2021).

Data set [1] deals with recombinant human NF-kappaB-inducing kinase (NIK/MAP3K14) (Homo sapiens, UniProt Q99558). Nature of the data set: Inhibition of auto-phosphorylation of recombinant human NIK/MAP3K14 activity (AlphaScreen), Biological Assay A. As to conditions: averaged values over all measurements on all batches. It is filed as biochemical. In a few lines: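 AlphaScreen detection with anti-phospho-IKK Ser176/180 antibody plus Protein A acceptor/glutathione donor beads after 1 h, 25 °C reaction of 0.2 nM GST-tagged kinase, 25 μM ATP and compound. Buffer: 50 mM Tris pH 7.5, MgCl2, EGTA, DTT, vanadate; 1% DMSO. IC50 fitted sigmoidally to % inhibition.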
Chain of recombinant human NF-kappaB-inducing kinase (NIK/MAP3K14) (Q99558 whole entry): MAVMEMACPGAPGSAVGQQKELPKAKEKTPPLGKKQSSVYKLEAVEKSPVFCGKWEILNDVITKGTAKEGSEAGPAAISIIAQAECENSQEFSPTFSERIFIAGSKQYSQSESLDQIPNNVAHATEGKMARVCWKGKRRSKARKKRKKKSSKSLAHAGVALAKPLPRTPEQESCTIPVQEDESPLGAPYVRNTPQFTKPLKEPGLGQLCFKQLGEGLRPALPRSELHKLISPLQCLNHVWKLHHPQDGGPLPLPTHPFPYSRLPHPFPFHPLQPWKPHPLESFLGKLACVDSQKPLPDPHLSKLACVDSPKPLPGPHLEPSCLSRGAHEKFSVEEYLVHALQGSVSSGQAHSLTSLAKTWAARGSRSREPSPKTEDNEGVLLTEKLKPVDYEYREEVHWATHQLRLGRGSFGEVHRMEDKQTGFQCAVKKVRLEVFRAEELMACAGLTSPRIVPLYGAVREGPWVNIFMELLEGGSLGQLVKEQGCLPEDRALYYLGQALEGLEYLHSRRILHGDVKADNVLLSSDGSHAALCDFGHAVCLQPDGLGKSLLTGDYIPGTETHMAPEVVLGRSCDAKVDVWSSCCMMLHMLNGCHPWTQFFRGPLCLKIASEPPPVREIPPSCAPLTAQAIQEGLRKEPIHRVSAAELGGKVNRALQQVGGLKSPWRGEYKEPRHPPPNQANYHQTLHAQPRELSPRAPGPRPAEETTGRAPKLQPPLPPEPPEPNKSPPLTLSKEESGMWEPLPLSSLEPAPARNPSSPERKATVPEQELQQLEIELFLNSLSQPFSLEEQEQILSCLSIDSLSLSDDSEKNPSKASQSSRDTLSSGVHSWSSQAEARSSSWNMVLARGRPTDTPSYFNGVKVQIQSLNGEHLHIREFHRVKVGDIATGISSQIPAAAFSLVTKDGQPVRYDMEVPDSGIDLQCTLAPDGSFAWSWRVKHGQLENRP
Background: Alpha assays give light when donor and acceptor beads are brought close together.

Data set [2] has as its system P-IKKα levels in L363 (NIK translocated multiple myeloma) cells. Kind of data set: Effect of compounds on P-IKKα levels in L363 cells (Mesoscale sandwich immuno-assay), Biological Assay B. It is filed as cell-based, human. As to conditions: Homo sapiens, L-363, 2 h, 2 hr treatment, averaged values, read-out: Inhibition of pIKKα_L-363 (IC50 (nM)). In short, it runs like this:
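P-IKKα in lysates quantified by Mesoscale sandwich immunoassay after 2 h compound exposure in 1% DMSO, duplicate wells, 8-point 1:3 series. Human L363 cells had been preincubated 24 h with BAFF (1 μg/ml stock). Blank (10 μM ADS125117) subtracted; IC50 fitted sigmoidally to % inhibition of control.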

In data set [3] the test system is JJN-3 (NIK translocated) multiple myeloma cells. Nature of the data set: Antiproliferative activity on JJN-3 multiple myeloma cells (CellTiter-Glo, 96 hr), Biological Assay C. In kind it is cell-based, human. Particulars: Homo sapiens, JJN-3, 96 h, JJN-3 (NIK translocated) cells, averaged values, read-out: JJN-3 Proliferation inhibition (IC50 (nM)). In a few lines:
(§1)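 Growth read-out was CellTiter-Glo luminescence after 96 h compound exposure, given as percent of no-drug control after subtracting a blank of cells read at dosing. Compounds ran as 9-point serial 1:3 dilutions in 0.3% DMSO, duplicate wells, on JJN-3 (15000/well) or KMS12-BM (20000/well) cells in RPMI 1640/10% FCS.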
Background: ATP-based viability assays read luminescence as a measure of living cells.

In data set [4] the test system is KMS12-BM (NIK WT) multiple myeloma cells. Nature of the data set: Antiproliferative activity on KMS12-BM multiple myeloma cells (CellTiter-Glo, 96 hr), Biological Assay C. It is filed as cell-based, human. As to conditions: Homo sapiens, KMS-12-BM, 96 h, averaged values, read-out: KMS-12 Proliferation inhibition (IC50 (nM)). In short, it runs like this: as §1

Some results are limits rather than exact numbers.

As to `Cc1c(Nc2nccc(-c3cc(C#N)c4c(c3)[C@@](C)(CO)CN4)n2)cc(C#N)cc1C(=O)N1CCN(C)CC1` [Compound 203], the melting point – broadly, the temperature of the solid-liquid transition – worked out at 294 °C. Also, the IC50 in data set [1] worked out at 6.6 nM. In addition, the IC50 in data set [2] turned out to be 1.8 nM. The IC50 in data set [3] is 14 nM. For the same compound, the IC50 in data set [4] was about 5890 nM.
In the same order, the values of `[2H]C([2H])([2H])N1CCN(C(=O)c2cc(C#N)cc(Nc3nccc(-c4cc(C#N)c5c(c4)[C@@](C)(CO)CN5)n3)c2C)CC1` [Compound 204] are 297 °C, 6.2 nM, 1.5 nM, 14 nM and about 3980 nM.
Taken in the same sequence, the figures for `[2H]C1([2H])OC([2H])([2H])C([2H])([2H])N(C(=O)c2cccc(Nc3nccc(-c4cc(C#N)c5c(c4)[C@@](C)(CO)CN5)n3)c2C)C1([2H])[2H]` [Compound 205] were 201 °C, 6 nM, 11.2 nM, 162 nM and over 10000 nM.
`Cc1c(Nc2nccc(-c3cc(C#N)c4c(c3)[C@@](C)(CO)CN4)n2)cccc1C(=O)N1CCN(C2COC2)CC1` [Compound 207] yielded a melting point of 268 °C. Moreover, in data set [1], the IC50 came out at 5 nM. In addition, in data set [2], the IC50 is 13.2 nM. Also, the IC50 in data set [3] amounted to 66 nM. The IC50 in data set [4] is about 9550 nM.
For the compound `C[C@]1(CO)CNc2c(C#N)cc(-c3ccnc(Nc4cc(CO)c(F)cc4OC4CC4)n3)cc21` [Compound 208], the melting point amounted to 234 °C. Besides, in data set [1], the IC50 is 6.5 nM. Also, the IC50 in data set [2] is 10.7 nM. Besides, the IC50 in data set [3] is 389 nM. The IC50 in data set [4] was over 10000 nM.
In the same order, the values of `C[C@]1(CO)CNc2c(C#N)cc(-c3ccnc(Nc4cc(C#N)c(F)cc4OC4CC4)n3)cc21` [Compound 209] are 254 °C, 14.5 nM, 14.8 nM, 132 nM and over 10000 nM.
The compound `Cc1ccc(C#N)cc1Nc1ncnc(-c2cc(C#N)c3c(c2)[C@@](C)(CO)CN3)n1` [Compound 213] yielded a melting point of 304 °C. In addition, in data set [1], the IC50 turned out to be 4.2 nM. Further, the IC50 in data set [2] was 5 nM. Moreover, the IC50 in data set [3] was 1070 nM. For the same compound, the IC50 in data set [4] is over 10000 nM.
With `COCCNCc1ccc(C)c(Nc2nccc(-c3cc(C#N)c4c(c3)[C@@](C)(CO)CN4)n2)c1` [Compound 217], the melting point came out at 151 °C. Further, in data set [1], the IC50 came out at 9.8 nM. In addition, the IC50 in data set [2] came to 107 nM. Moreover, the IC50 in data set [3] was 4270 nM. The IC50 in data set [4] was about 7940 nM.
Regarding `Cc1ccc(CN2CC(F)C2)cc1Nc1nccc(-c2cc(C#N)c3c(c2)[C@@](C)(CO)CN3)n1` [Compound 220], the melting point was found to be 140 °C. For the same compound, the IC50 in data set [1] amounted to 10.2 nM. For the same compound, the IC50 in data set [2] is 72.4 nM. Further, the IC50 in data set [3] is 4570 nM. Also, in data set [4], the IC50 was over 10000 nM.
In the same order, the values of `CN1CCC(Oc2ccc(C#N)cc2Nc2nccc(-c3cc(C#N)c4c(c3)[C@@](C)(CO)CN4)n2)CC1` [Compound 223] are 129 °C, 1.6 nM, 3.1 nM, 23 nM and about 851 nM.
Take `C[C@]1(CO)CNc2c(C#N)cc(-c3ccnc(Nc4cc(C#N)ccc4CN4CCOCC4)n3)cc21` [Compound 224]: the melting point is 238 °C. In data set [1], the IC50 was found to be 14.1 nM. Moreover, the IC50 in data set [2] amounted to 83.2 nM. Also, the IC50 in data set [3] was determined as 3240 nM. The IC50 in data set [4] is over 10000 nM.
Taken in the same sequence, the figures for `C[C@]1(CO)CNc2c(C#N)cc(-c3ccnc(Nc4cc(C#N)ccc4CNC4CC4)n3)cc21` [Compound 225] were 181 °C, 20 nM, 19.5 nM, 195 nM and over 10000 nM.
Taken in the same sequence, the figures for `CN1CCN(Cc2ccc(C#N)cc2Nc2nccc(-c3cc(C#N)c4c(c3)[C@@](C)(CO)CN4)n2)CC1` [Compound 226] were 298 °C, 4.3 nM, 33.1 nM, 74 nM and over 10000 nM.
In the same order, the values of `C[C@]1(CO)CNc2c(C#N)cc(-c3ccnc(Nc4cc(C#N)ccc4CN4CC(F)(F)C4)n3)cc21` [Compound 227] are 223 °C, 7.9 nM, 32.4 nM, 96 nM and about 3160 nM.
`CC1(CO)CNc2c(C#N)cc(-c3ccnc(Nc4cc(C#N)ccc4CN4CC(F)C4)n3)cc21` (centres unmarked) [Compound 228]: the melting point was 170 °C. In data set [1], the IC50 is 5.4 nM. In addition, the IC50 in data set [2] came out at 19.5 nM. In data set [3], the IC50 worked out at 120 nM. Besides, the IC50 in data set [4] was over 10000 nM.
The compound `C[C@]1(CO)CNc2c(C#N)cc(-c3ccnc(Nc4cc(C#N)ccc4CCN4CC(F)C4)n3)cc21` [Compound 229] returned a melting point of 207 °C. Also, the IC50 in data set [1] was determined as 7.6 nM. Also, in data set [2], the IC50 came out at 22.4 nM. In addition, the IC50 in data set [3] was found to be 251 nM. Moreover, the IC50 in data set [4] was over 10000 nM.
In turn, `Cc1ccc(OCCNC2CC2)c(Nc2nccc(-c3cc(C#N)c4c(c3)[C@@](C)(CO)CN4)n2)c1` [Compound 235] returned a melting point of 133 °C. Also, the IC50 in data set [1] is 3.9 nM. The IC50 in data set [2] came to 60.3 nM. Moreover, the IC50 in data set [3] came to 457 nM. Besides, the IC50 in data set [4] was found to be 2690 nM.
In the same order, the values of `CN(C)Cc1cc(Nc2nccc(-c3cc(C#N)c4c(c3)[C@@](C)(CO)CN4)n2)ccc1C1CCOCC1` [Compound 236] are 249 °C, 2.6 nM, 42.7 nM, 32 nM and 178 nM.
In the same order, the values of `CCS(=O)(=O)N(C)c1cccc(Nc2nccc(-c3cc(C#N)c4c(c3)C(C)(CO)CN4)n2)c1` (centres unmarked) [Compound 240] are 259 °C, 2.5 nM, 11.2 nM, 44 nM and 302 nM.
